From patent publication US20170290783A1, “Rabbit Maternal Pheromones to Enhance the Weight of Weaning Piglets” (Animal Biotech, LLC, priority 2016, published 2017)

Key:
[1] = system: weaning piglets; test: Post-weaning piglet performance (body weight, ADG, ADFI, G:F) after a single application of rabbit maternal pheromone to the nursery feeder; format: in vivo, pig
Description: Piglets (n=120) were randomly selected from nursing sows. A total of 120 piglets, 60 males and 60 females, were weaned at approximately 3 weeks of age and transported for four hours before entering the nursery site. Piglets were housed in groups of three, single-sex (either barrows or gilts), and had ad libitum access to feed and water. A total of 40 pens (the experimental unit) were available; 10 each of male and female experiencing control or pheromone therapy. Space allowance was in excess of industry standards (0.6 m^2 per piglet). Body weight and feed intake were each measured once per week from commencement of weaning until 35 days after weaning.
Control and pheromone-treated piglets were housed in separate rooms, with no airflow between the rooms to ensure no cross contamination between air spaces. To expose piglets to the rabbit maternal pheromone, test piglet feeders received 25 mL of the trans-2-methyl-2-butenal solution (1 μg/mL in isopropyl alcohol) while the control piglet feeders received 25 mL of isopropyl alcohol only. Feeders were sprayed immediately before the arrival of piglets to the nursery site.
Half of the pigs and pens in each group were transported and half were moved directly from the farrowing crates to the adjacent nursery building. The experimental design was a completely random design with a two by two factorial arrangement of transport (or not) and trans-2-methyl-2-butenal or placebo control.
Average daily gain (ADG, kg. per day) was calculated from the body weights both weekly and over the entire period. Average daily feed intake (ADFI, kg. per pig per day) was calculated based on weekly feed consumption. Gain to Feed (G:F) was calculated each week and over the 28-day post-weaning period.
Data were analyzed using SAS software (SAS, 2012). PROC Univariate was used to establish that the overall ADG, ADFI and G:F ratio data were normally distributed. The general linear models procedure was used with pen as the experimental unit. There were 40 experimental units (pens) in total. The original model contained the factorial effects of (A) trans-2-methyl-2-butenal applied during transport or not, (B) trans-2-methyl-2-butenal applied to the nursery feeder or not, and (3) pig sex (barrow vs. gilt) and all possible interactions. […] A final simplified analysis was performed with only the effects of trans-2-methyl-2-butenal applied in the nursery or not with 20 pens per treatment.

[2] = system: re-grouped, stressed pigs; conditions: cited from earlier work

SMILES	Piglet body weight vs control ([1]; 14 days after weaning)	G:F (gain to feed) ([1]; P>0.10 vs control)	Piglet body weight vs control ([1]; at weaning and 7 days later, 25 mL of 1 μg/mL in isopropyl alcohol sprayed on feeder)	Body weight at weaning ([1]; at weaning, pigs to experience treatment, control 6.5±0.06 kg, P>0.10) [kg]	Overall ADG (average daily gain) ([1]; both the 4 and 5 week period after weaning, P<0.05 vs control)	Piglet body weight vs control ([1]; days 21, 28 and 35 after weaning, P<0.05)	ADFI (average daily feed intake) ([1]; during 4 weeks after weaning, P<0.05 vs control)	Stimulatory effect on feed intake ([1]; first week after weaning)	Improvement in body weight vs control ([1]; five weeks after weaning, P=0.01) [%]	Body weight five weeks after weaning ([1]; five weeks after weaning, control 16.5±0.31 kg, P=0.01) [kg]	ADFI and ADG ([1]; single application to the feeder in the post-weaning environment)	Overall performance measures, effect of application during transport ([1]; transport application, P>0.10)	Post-weaning ADG ([1]; weeks 3, 5 and overall, P<0.05)	ADFI ([1]; weeks 3 and 4 after weaning and overall 5-week growth period, P<0.05)	Stimulatory effect on feed intake ([1]; weeks two to five after weaning)	Pig aggressive behaviors ([2]; pig, in vivo)	Weight gain ([2]; re-grouped, stressed pigs)
C/C=C(\C)C=O [trans-2-methyl-2-butenal]	tended (P=0.06) to be heavier	not influenced	statistically similar	6.6 ± 0.025	increase	significantly heavier	increase	very small (and not significant)	8.5	17.9 ± 0.31	stimulate	not significant	increased	higher	increases in magnitude	–	–
C[C@]12CCC(=O)C[C@@H]1CC[C@@H]1[C@@H]2CC[C@]2(C)C=CC[C@@H]12 [Androstenone]	–	–	–	–	–	–	–	–	–	–	–	–	–	–	–	reduced	temporarily improve
